Read-outs that look alike come from different tables or passages of the source.
Assays:
Type in all cases: in vivo
DBA/2 mice = experiment: DBA2 mouse model of anticonvulsant efficacy (sound-induced seizures); design: Anticonvulsant % Protect 2 br / Anticonvulsant % Protect 1hr: concentration or dose not given beside the values; settings: for responders at 30 mg/kg: Mus musculus; for Anticonvulsant % Protect 2 br / Anticonvulsant % Protect 1hr: Table 1
[1] = Anxiolytic activity relative to pregabalin (test model not specified); settings: 30 mg/kg PO; percent of pregabalin activity
Male Sprague-Dawley rats = experiment: Carrageenin-induced hyperalgesia, rat paw pressure test; settings: dosed orally at 30 mg/kg
Procedure: Male Sprague-Dawley rats (70-90 g) were trained on this apparatus before the test day. Pressure was gradually applied to the hind paw of each rat and nociceptive thresholds were determined as the pressure (g) required to elicit paw withdrawal. […] On the test day, two to three baseline measurements were taken before animals were administered 100 µL of 2% carrageenin by intraplantar injection into the right hind paw.

[2] = 30 mg/kg PO, 1h, read-out: Anticonvulsant % Protect* 1h
[3] = 30 mg/kg PO, 2h, read-out: Anticonvulsant % Protect* 2h

| SMILES | responders at 30 mg/kg (DBA/2 mice; [2]) [%] | responders at 30 mg/kg (DBA/2 mice; [3]) [%] | Anxiolytic Activity* % Preg. Act. [1] [%] | also measured |
| --- | --- | --- | --- | --- |
| CC(CC(CN)CC(=O)O)C(F)(F)F (stereo not drawn) [3-Aminomethyl-6,6,6-trifluoro-5-methyl-hexanoic acid] | 0 | 0 |  |  |
| CCCCC(C)CC(CN)CC(=O)O (stereo not drawn) [3-Aminomethyl-5-methylnonanoic acid, 3-Aminomethyl-5-methyl-nonanoic acid] | 40 | 80 |  |  |
| CCCCC[C@H](C)C[C@H](CN)CC(=O)O [(3S,5S)-3-Aminomethyl-5-methyl-decanoic acid] | 0 | 20 |  |  |
| CCCC(C)C[C@H](CN)CC(=O)O (stereo partly drawn) [(S)-3-Aminomethyl-5-methyl-octanoic acid] | 100 | 100 | 135.38 |  |
| C=CCC(C)CC(CN)CC(=O)O (stereo not drawn) [3-Aminomethyl-5-methyl-oct-7-enoic acid] | 0 | 0 |  |  |
| CCC(CC)CC(CN)CC(=O)O (stereo not drawn) |  |  |  | Anticonvulsant % Protect 2 br (DBA/2 mice): 20%; Anticonvulsant % Protect 1hr (DBA/2 mice): 0% |
| CC(C)C(c1ccccc1)C(CN)CC(=O)O (stereo not drawn) [3-Aminomethyl-5-methyl-4-phenyl-hexanoic acid] | 0 | 0 |  |  |
| CC(C)[C@@H](C)[C@H](CN)CC(=O)O [(3R,4R)-3-Aminomethyl-4,5-dimethyl-hexanoic acid] |  |  | 204 |  |
| COCC(C)C[C@H](CN)CC(=O)O (stereo partly drawn) [(S)-3-Aminomethyl-6-methoxy-5-methyl-hexanoic acid] | 0 | 0 |  |  |
| CC(Cc1ccccc1)CC(CN)CC(=O)O (stereo not drawn) [3-Aminomethyl-5-methyl-6-phenyl-hexanoic acid] | 0 | 0 |  |  |
| CCC(C(C)C)C(CN)CC(=O)O (stereo not drawn) [3-aminomethyl-4-isopropyl-hexanoic acid, 3-Aminomethyl-4-isopropyl-hexanoic acid] | 0 | 0 |  |  |
| CC(C)CC(CN)CC(=O)O (stereo not drawn) [reference compound] |  |  |  | Anticonvulsant % Protect 2 br (DBA/2 mice): 100% |
| CCC(C)CC(CN)CC(=O)O (racemic) [3-Aminomethyl-5-methylheptanoic acid] | 60 | 100 | 79 |  |
| CCCCC[C@@H](C)C[C@H](CN)CC(=O)O [(3S,5R)-3-Aminomethyl-5-methyl-decanoic acid] | 100 | 100 | 105.59 |  |
| CCC[C@H](C)C[C@H](CN)CC(=O)O [(3S,5S)-3-Aminomethyl-5-methyl-octanoic acid] | 0 | 20 | 15.6 |  |
| CCC(C)CC(CN)CC(=O)O (stereo not drawn) |  |  |  | Anticonvulsant % Protect 2 br (DBA/2 mice): 100%; Anticonvulsant % Protect 1hr (DBA/2 mice): 60% |
| Cl.O=C(O)[C@H]1CNCC12CCCCC2 [(R)-2-Aza-spiro[4.5]decane-4-carboxylic acid hydrochloride] |  |  |  | percent of maximum possible effect (MPE) (Male Sprague-Dawley rats; 1 hour postdose): 53%; percent of maximum possible effect (MPE) (Male Sprague-Dawley rats; 2 hours postdose): 4.6% |
| CC(C)[C@@H](C)C(CN)CC(=O)O (stereo partly drawn) |  |  |  | Anticonvulsant % Protect 2 br (DBA/2 mice): 100%; Anticonvulsant % Protect 1hr (DBA/2 mice): 80% |
| CC[C@@H](C)[C@H](CN)CC(=O)O |  |  |  | Anticonvulsant % Protect 2 br (DBA/2 mice): 0%; Anticonvulsant % Protect 1hr (DBA/2 mice): 0% |
| CC(C)[C@@H](C)[C@@H](CN)CC(=O)O [(3S,4R)3-Aminomethyl-4,5-dimethyl-hexanoic acid] |  |  | 12 | Anticonvulsant % Protect* 1h (DBA/2 mice; 30 mg/kg PO, 1h): 20%; Anticonvulsant % Protect* 2h (DBA/2 mice; 30 mg/kg PO, 2h): 20% |
| CCCC[C@H](C)C[C@H](CN)CC(=O)O [(3S, 5S)-3-Aminomethyl-5-methyl-nonanoic acid] | 0 | 0 |  |  |
| CCCCC(C(C)C)C(CN)CC(=O)O (stereo not drawn) [3-aminomethyl-4-isopropyl-octanoic acid, 3-Aminomethyl-4-isopropyl-octanoic acid] | 0 | 0 |  |  |
| CCCC(C)CC(CN)CC(=O)O (stereo not drawn) [3-Aminomethyl-5-methyloctanoic acid, 3-Aminomethyl-5-methyl-octanoic acid] | 40 | 100 |  |  |
| CCC(CC)C(CN)CC(=O)O (stereo not drawn) |  |  |  | Anticonvulsant % Protect 2 br (DBA/2 mice): 20%; Anticonvulsant % Protect 1hr (DBA/2 mice): 0% |
| CC[C@@H](C)C[C@H](CN)CC(=O)O [(3S,5R)-3-Aminomethyl-5-methyl-heptanoic acid] |  |  |  | Anticonvulsant % Protect* 2h (DBA/2 mice; 30 mg/kg PO, 2h): 100% |
| CCCCCC(C)CC(CN)CC(=O)O (stereo not drawn) [3-Aminomethyl-5-methyldecanoic acid, 3-Aminomethyl-5-methyl-decanoic acid] | 0 | 0 |  |  |
| CC(C)C[C@H](CN)CC(=O)O [Pregabalin, (S)-3-(Aminomethyl)-5-methylhexanoic acid, reference compound] |  | 100 | 100 |  |
| CC(C)[C@H](C)[C@H](CN)CC(=O)O [(3R,4S)-3-Aminomethyl-4,5-dimethyl-hexanoic acid] |  |  | 58 |  |
| CCCC[C@@H](C)C[C@H](CN)CC(=O)O.Cl [(3S,5R)-3-Aminomethyl-5-methyl-nonanoic acid hydrochloride] | 100 | 100 | 125.94 |  |
| CCC[C@@H](C)C[C@H](CN)CC(=O)O.Cl [(3S,5R)-3-Aminomethyl-5-methyl-octanoic acid hydrochloride] | 100 | 100 | 160 |  |

From patent EP1192125B9, “MONO-SUBSTITUTED 3-PROPYL GAMMA-AM[…]” (Warner-Lambert Company LLC, priority 1999, dated 2000)
